“And” between values parts separate entries of the source, which are not always exact repeats. Equal entries are not always repeated. No end group written: not given here.

The results in this text go back to PMC10449631 (Nature Chemical Biology, 2023).

Assay [1] concerns the target T1, PaAP variant R194A (Pseudomonas aeruginosa, UniProt Q02PA2, R194A).
T1 construct: PaAP (WT, residues 27–536); His6 (TEV cleavable) (N, cleaved yes); made in house; host or cells: E. coli SHuffle T7
Description: biochemical. Here is the method: (§1) To test this, we produced the PaAP variant R194A to eliminate a likely salt bridge between the peptide COOH and the guanidinium of the protein arginine side chain.
(§2) Inhibition assays were carried out with the following peptides: linear-[…] (PaAP C-terminal residues), cyclic-[…], N-acetylated and C-amidated […]. IC50 values were determined by varying peptide concentration at a fixed substrate concentration (fixed at KM, (S) = 2 mM, PaAP concentration was 100 nM). KI was determined by assaying multiple fixed inhibitor concentrations (1,000 nM, 500 nM, 250 nM, 100 nM, 50 nM, 25 nM and 10 nM) at varying substrate concentrations under standard reaction conditions with Leu-pNA as a substrate (outlined above). KI values were determined by fitting the data to equation (1) (Morrison’s equation):1 v=1−Et+I+KI−Et+I+KI^2−4EtIKI/2Et where v is the velocity, Et is the total enzyme concentration, I is the concentration of inhibitor and KI is the equilibrium dissociation constant for the inhibitor.

In assay [2] the test system is PaAP variant R194A. Description: biochemical. More on the design: species or system Pseudomonas aeruginosa. Conditions: compared to full-length PaAP. Here is the method: as §1, §2
The target in the next assay is T2, PaAP (Pseudomonas aeruginosa, UniProt Q02PA2, A513L/Q514V/S515P).
T2 construct: PaAP (WT, residues 27–536); His6 (TEV cleavable) (N, cleaved yes); made in house; host or cells: E. coli SHuffle T7
T2 sequence (Q02PA2 37-516 A513L/Q514V/S515P): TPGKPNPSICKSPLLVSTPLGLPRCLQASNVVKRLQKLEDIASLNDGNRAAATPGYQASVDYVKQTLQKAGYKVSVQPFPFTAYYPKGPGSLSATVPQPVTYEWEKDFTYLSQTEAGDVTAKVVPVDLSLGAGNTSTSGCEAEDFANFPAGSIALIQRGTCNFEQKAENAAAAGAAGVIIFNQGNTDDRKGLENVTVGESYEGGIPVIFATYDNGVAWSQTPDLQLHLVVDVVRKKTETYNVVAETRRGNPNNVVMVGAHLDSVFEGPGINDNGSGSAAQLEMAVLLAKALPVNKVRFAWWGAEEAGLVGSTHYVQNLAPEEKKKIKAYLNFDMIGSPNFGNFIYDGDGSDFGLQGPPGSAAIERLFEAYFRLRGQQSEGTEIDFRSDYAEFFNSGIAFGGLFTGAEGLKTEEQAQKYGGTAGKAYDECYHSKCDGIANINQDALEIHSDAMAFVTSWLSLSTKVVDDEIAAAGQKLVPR
Description: Peptide digestion assay (overnight and time course, LC-MS/MALDI). The assay is classed as biochemical. Conditions: for substrate of / degraded by PaAP (words): incubated with PaAP overnight, LC–MS or MALDI; for P0 (parent peptide, LC–MS signal): 500 μM peptide, 1 μM PaAP_T. As to the method: A variety of peptides of varying lengths and compositions were incubated with PaAP at room temperature. Assays were performed by incubating (overnight at room temperature) 500 μM of substrate (peptides) with 1 μM enzyme (PaAP) in reaction buffer (50 mM Tris, pH 8.5, 100 mM NaCl). The reactions were quenched by heating to 100 °C for 10 min followed by centrifugation at 17,000g in a benchtop centrifuge to remove precipitate. Supernatant was collected and samples were analyzed by LC–MS. Initial trial assays were carried out in the presence and absence (control) of enzyme to determine if the substrate was degraded (single or triplicate experiments). Time-course assays were performed on selected peptide substrates in triplicate. A 300 μl reaction (including 500 μM of substrate) was initiated by the addition of 1 μM enzyme. The reaction was incubated at room temperature. The reaction was quenched at set timepoints by the removal of 30 μl aliquots, which were immediately heated to 100 °C for 10 min. The samples were analyzed by LC–MS using a Xevo Q-ToF (Waters) as described below, searching for masses of all peptide breakdown products.
Peptide degradation time courses were fitted to exponential equations as follows:
P0 peptide consumption was fitted to a single exponential equation (equation (2)) with the format2 yt=y0−Plateaue^−kt+Plateau
Time courses for the formation and decay of peptide intermediates were fitted to double exponential equations (equation (3)) and single exponential equations, followed by a linear phase (4)3 yt=y0−Plateau1e^−k1t+y0−Plateau2e^−k2t+Plateau 4 yt=y0−Plateaue^−kt+vt+Plateau where y(t) is the product formed at time t, y0 − Plateau is the amplitude of the exponential phase, k is the observed rate constant for the exponential phase, y0 is the value of y at time 0, Plateau is the value of y after exponential phase, C is the offset and v is the slope of the linear phase.
Peptide samples incubated in the presence and absence of PaAP were initially analyzed by MALDI. The peptide sample (0.5 µl at 10 µM) was spotted along with matrix (0.5 µl 10 mg ml^−1 α-cyano-4-hydroxycinnamic acid in ACN/0.1% TFA (50/50, vol/vol)) on a stainless steel MALDI plate and left to dry. The sample plate was loaded into a Sciex 4800 MALDI mass spectrometer. The laser voltage was adjusted to give a good signal to noise strength, and 50 shots were acquired in a random pattern across the spot and spectra combined. The spectra were externally calibrated with Sciex Pepcal mix (range: 500–4,000 m/z).

T1 sequence (Q02PA2 37-516, looked up, stated change not applied): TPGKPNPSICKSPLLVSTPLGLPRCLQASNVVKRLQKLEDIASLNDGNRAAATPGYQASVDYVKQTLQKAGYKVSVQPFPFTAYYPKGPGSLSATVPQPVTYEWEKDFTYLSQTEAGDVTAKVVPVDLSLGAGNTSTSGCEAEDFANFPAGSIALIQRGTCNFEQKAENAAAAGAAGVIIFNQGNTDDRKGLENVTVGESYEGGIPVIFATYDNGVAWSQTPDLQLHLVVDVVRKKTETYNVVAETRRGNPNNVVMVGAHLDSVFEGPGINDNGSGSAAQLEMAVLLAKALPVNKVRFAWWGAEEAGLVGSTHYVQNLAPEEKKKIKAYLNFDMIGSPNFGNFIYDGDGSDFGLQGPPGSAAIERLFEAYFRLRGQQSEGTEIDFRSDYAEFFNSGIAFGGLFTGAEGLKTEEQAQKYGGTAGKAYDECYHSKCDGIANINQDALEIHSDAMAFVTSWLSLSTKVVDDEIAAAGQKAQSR

In the case of ERWGHDFIK [linear-ERWGHDFIK], at PaAP variant R194A [1], it took 306 µM to reach half-maximal inhibition (IC50). The “fold increase of IC50 with R194A variant” value in the assay on PaAP variant R194A [2] was 100 fold. For the same sequence, the “substrate of / degraded by PaAP (words)” value at PaAP is on record as “acts as a substrate”; at PaAP (listed as ERWGHDFIK), “capable of processing”. For the same sequence, the “P0 (parent peptide, LC–MS signal)” value on PaAP (time 0 minutes) is 472729 and 388218 and 391107; at PaAP (time 5 minutes) it was 463970 and 401514 and 388992; on PaAP (time 10 minutes) it was 456641 and 389333 and 386619; on PaAP (time 30 minutes) it was 422990 and 361623 and 355988; at PaAP (time 60 minutes), 374560 and 318426 and 323916; on PaAP (time 90 minutes), 323540 and 290204 and 288024. Further, the “P0 (parent peptide, LC–MS signal)” value is 238229 and 257847 on PaAP (time 120 minutes); 623.109 and 431.795 and 326.884 on PaAP (time 1220 minutes).
